T1: human Kv1.7 channel (human), Q96RP8
T1 chain: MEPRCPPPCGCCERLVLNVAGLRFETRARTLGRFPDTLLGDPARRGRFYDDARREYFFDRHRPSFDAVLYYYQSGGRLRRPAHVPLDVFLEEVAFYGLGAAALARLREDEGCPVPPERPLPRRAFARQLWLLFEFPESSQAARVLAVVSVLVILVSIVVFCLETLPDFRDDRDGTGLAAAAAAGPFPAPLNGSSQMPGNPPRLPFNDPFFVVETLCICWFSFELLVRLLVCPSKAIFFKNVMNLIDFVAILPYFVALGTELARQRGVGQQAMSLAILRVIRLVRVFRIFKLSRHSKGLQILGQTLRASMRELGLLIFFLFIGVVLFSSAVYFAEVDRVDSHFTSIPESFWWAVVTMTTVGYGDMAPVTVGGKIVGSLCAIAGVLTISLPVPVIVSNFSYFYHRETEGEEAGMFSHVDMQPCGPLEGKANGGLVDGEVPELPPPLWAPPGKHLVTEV

T2: mouse Kv1.7 channel (mouse), Q17ST2
T2 chain: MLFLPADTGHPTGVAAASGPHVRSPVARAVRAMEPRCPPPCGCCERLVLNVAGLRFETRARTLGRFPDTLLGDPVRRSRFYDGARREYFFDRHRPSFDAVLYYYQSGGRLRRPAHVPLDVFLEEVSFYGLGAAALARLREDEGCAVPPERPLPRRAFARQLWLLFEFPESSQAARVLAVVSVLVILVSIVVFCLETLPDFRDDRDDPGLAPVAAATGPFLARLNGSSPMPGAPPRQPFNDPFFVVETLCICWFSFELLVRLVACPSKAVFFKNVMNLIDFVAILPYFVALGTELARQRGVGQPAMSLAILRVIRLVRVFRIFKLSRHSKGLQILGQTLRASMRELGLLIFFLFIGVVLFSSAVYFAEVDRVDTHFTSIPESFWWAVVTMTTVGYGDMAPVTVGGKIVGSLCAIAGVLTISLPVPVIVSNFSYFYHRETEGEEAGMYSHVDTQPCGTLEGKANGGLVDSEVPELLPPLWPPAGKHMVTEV

B1: Conkunitzin-S1 (peptide)
chain: KDRPSLCDLPADSGSGTKAEKRIYYNSARKQCLRFDYTGQGGNENNFRRTYDCQRTCLYT
modifications: not checked

Tests used:
[1] = rat, in vivo
[2] = target: T1, human Kv1.7 channel (human), Q96RP8; assay: cell-based or functional assay
[3] = target: T2, mouse Kv1.7 channel (mouse), Q17ST2; assay: cell-based or functional assay

Molecule | AUC calculated from the glucose profiles [1] | AUC of the insulin profiles [1] | Glucose-induced blood glucose increase [1] | IC50 of block of channel currents (HEK-293 cells) [2] | IC50 of block of channel currents (two electrode voltage clamp, Xenopus oocytes) [3]
COc1ccc(Cl)cc1C(=O)NCCc1ccc(S(=O)(=O)NC(=O)NC2CCCCC2)cc1 [glibenclamide] | 79 ± 7 g·min/L | 310 ± 35 ng·min/mL | reduction of the glucose-induced glucose increase | – | –
B1 | – | – | – | 445 nM | 122 nM
